Assay results: patent US8771755B2, “Preparation and compositions of highly bioavailable zerovalent sulfur and uses thereof” (Nuevas Alternativas Naturales, S.A.P.I. de C.V., priority 2011, dated 2014)
Like-named read-outs stand apart in the source and are kept apart here.

Key:
[1] = tested on: patients with idiopathic oligoasthenozoospermia; test: Prospective, randomized, double blind study in idiopathic oligoasthenozoospermia, semen analysis; type: in vivo, human; conditions: first sample (baseline, before treatment)
Protocol: A prospective, randomized, double blind study evaluated and approved by the Ethics Committee of the Universidad Autónoma de Nuevo León University Hospital (Monterrey, Mexico) with registration number BR09-001 was conducted. The study included patients who attended the Reproductive Biology Clinic of the University Hospital from July 2009 to September 2010 who desired to be pregnant and met the inclusion criteria. Patients between 20 and 45 years of age with a diagnosis of idiopathic oligoasthenozoospermia wishing to participate in the study after signing informed consent were included. The diagnosis of oligoasthenozoospermia was reached by performing two semen analyses on different dates with an interval of three weeks in between. To make the diagnosis, the results of the semen analyses needed to report less than 25% type A sperm motility or less than 50% type A+B sperm motility as detailed in the World Health Organization Laboratory Manual for the Examination of Human Semen and Semen-Cervical Mucus Interaction, 4th ed. New York: Cambridge University Press, 1999. Type A Motility comprised rapid progression; type B motility comprised medium progression; type C mobility comprised slow or clumsy progression; and type D mobility comprised immotile. Oligozoospermia was defined as a concentration of less than 20 million sperm per milliliter, according to the criteria of the World Health Organization. Oligoasthenozoospermia was defined as the presence of oligozoospermia and asthenozoospermia in the same patient. In each semen analysis, morphology was manually assessed using Kruger strict criteria.
Infertile patients with normal findings on semen analysis, patients who were chronic smokers or those who had been taking antioxidants in the last 6 months prior to study entry were excluded. Patients with chronic degenerative diseases such as diabetes or high blood pressure or with hormonal abnormalities were also excluded.
A complete medical history and physical examination was obtained for all patients. All study participants underwent a second semen analysis to confirm the diagnosis after a sexual abstinence of 3 to 5 days. This semen analysis was considered baseline (sample 1). On a second visit this new semen analysis was reviewed to confirm oligoasthenozoospermia and one of the 3 substances to be taken was randomly prescribed for 75 days. The substances given were 1.5 g of hydrogen sulfide prodrug as an antioxidant, 50 mg of resveratrol as an antioxidant, and 1.5 g of microcrystalline cellulose as a placebo.
Randomization of the substance given to each patient was performed by placing in a drawer at random all the containers having exactly the same color, size, and shape with the three separate substances (hydrogen sulfide prodrug, resveratrol, and placebo) without any kind of reference as to the content. […] The attending physician and the patient were unaware of the contents of the container. […] Each patient was asked to take a container at random and the container number was recorded in the patient's medical record. At the end of the study, before statistical analysis, we obtained the relationship between the numbers on the labels and the contents, grouping patients according to the substance. Each patient was given a treatment adherence form (a patient log) in order to count the days of medication and record adverse events, if these occurred, including the type and frequency.
The patients were scheduled one month after starting treatment (third visit) in order to document adverse effects and adherence to treatment.
In the next scheduled consultation (fourth visit), carried out 75 days after starting treatment; adherence was verified and adverse effects were reported. For this visit, the patients presented with 3 to 5 days of sexual abstinence for post-treatment semen analysis (sample 2). […]

[2] = Percentage bioactive sulfur contained in hydrogen sulfide prodrugs; type: physicochemical
angiogenesis = conditions: in the drinking water; via increasing VEGF expression; Givvimani et al. 2011; cited from earlier work
[3] = tested on: pregnant rat uterine contractility; conditions: in vitro, Sidhu et al. 2001; cited from earlier work
[4] = comparison substance; cited from earlier work
[5] = tested on: superoxide formation and expression of p47phox (a subunit of NOX); conditions: Shukla et al., BJU Int. 2009; cited from earlier work
[6] = sulfur capable of being converted into hydrogen sulfide in vivo, prior art prodrugs

Oc1ccc(C=Cc2cc(O)cc(O)c2)cc1 [Resveratrol, resveratrol]
MFR (Mobile Forms Recovery, post sperm capacitation) [1]: 0.40 × 10^6 | mean sperm concentration [1]: 10.9 million per milliliter | mobile forms recovered (MFR) post-sperm capacitation [1]: 0.40 million | Motility A + B (%) ([1]; group mean): 14.43% | Normal morphology (%) ([1]; group mean): 32.06% | Sperm concentration ([1]; group mean): 10.9 × 10^6

C[S+]([O-])CCCCN=C=S (stereo not shown) [Sulforaphane]
% Bioactive sulfur (w/w) [2, 6]: 18 % (w/w)

C1COCCN1.COc1ccc(P(=S)(S)N2CCOCC2)cc1 (stereo not shown) [GYY 4137]
% Bioactive sulfur (w/w) [2]: 8.5 % (w/w)

[Na+].[Na+].[S-2] [Na2S (anhydrous), Na2S]
% Bioactive sulfur (w/w) [2]: 41 % (w/w)

[Na+].[SH-] [NaHS (anhydrous), sodium hydrogen sulfide]
angiogenesis (angiogenesis): augmented angiogenesis | uterine spontaneous contractility [3]: significant dose-dependent decreases

COc1ccc2cc(C(C)C(=O)Oc3ccc(C(N)=S)cc3)ccc2c1 (stereo not shown) [ATB 346]
% Bioactive sulfur (w/w) [2, 6]: 8.8 % (w/w)

COc1ccc2c(c1)c(CC(=O)Oc1ccc(-c3cc(=S)ss3)cc1)c(C)n2C(=O)c1ccc(Cl)cc1 [ATB 343]
% Bioactive sulfur (w/w) [2]: 5.6 % (w/w)

O=C(Cc1ccccc1Nc1c(Cl)cccc1Cl)Oc1ccc(-c2cc(=S)ss2)cc1 [ACS 15]
% Bioactive sulfur (w/w) [2]: 6.3 % (w/w)

[S] [Pure alpha- or beta-elemental sulfur, elemental sulfur]
solubility in carbon disulfide [4]: completely soluble

O=C(CCC/C=C\C[C@@H]1[C@@H](CC[C@@H](O)CCc2ccccc2)[C@H](O)C[C@@H]1O)Oc1ccc(-c2cc(=S)ss2)cc1 [ACS 67]
% Bioactive sulfur (w/w) [2]: 5.3 % (w/w)

CCCc1nn(C)c2c(=O)[nH]c(-c3cc(S(=O)(=O)N4CCN(CC(=O)Oc5ccc(-c6cc(=S)ss6)cc5)CC4)ccc3OCC)nc12 [ACS 6]
% Bioactive sulfur (w/w) [2, 6]: 3.5 % (w/w) | inhibition of expression of p47phox [5]: more than sildenafil citrate | inhibition of superoxide formation [5]: more than sildenafil citrate
